From patent publication US20250268931A1, “TRANSCRIPTIONAL INHIBITOR FOR IMMUNE-RELATED GENE” (The University of Tokyo, priority 2022, published 2025)

Key:
[1] = system: IFN-β, IL-6 and TNF-α; assay: Cytokine concentration in culture supernatant of Poly(I:C)-stimulated peritoneal macrophages (ELISA); assay type: cell-based, mice; details: 3 or 10 μM 24 h, Poly(I:C) 1 μg/mL 16 h
Procedure: Peritoneal macrophages were harvested from wild-type mice, and were then seeded on a 96-well plate at a cell density of 2.5×10^5 cells/well, followed by culturing for 2 hours. Thereafter, the cultured cells were washed twice with PBS. Subsequently, IRF-PIPA 3 was suspended in 10% FBS-RPMI or D-MEM to a final concentration of 3 or 10 µM, and was then added to the wells. After completion of the culture for 24 hours, Poly(I:C) was added to the cultured cells to a final concentration of 1 μg/mL, and the obtained mixture was then cultured for 16 hours. The supernatant was recovered, and the concentrations of IFN-β, IL-6, and TNF-α were then measured by ELISA.
(§1) Mouse peritoneal macrophages were harvested from 6-week-old CL57B/6 mice (CLEA Japan, Inc.) by peritoneal lavage using 7 mL of PBS (Nacalai Tesque), and the cells adhered to the culture plate by culture for 2 hours were used in experiments. The culture was carried out using an RPMI or D-MEM medium (Nacalai Tesque) containing 10% FBS (SIGMA-ALDRICH) and Penicillin-Streptomycin mixed solution (Nacalai Tesque). The CL57B/6 mice were bred in an SPF environment.
2×10^4 Raw264.7 cells were seeded on a plate, and were then treated with IRF-PIPA 1, IRF-PIPA 2, IRF-PIPA 3 or IRF-PIPA 4 for 24 hours. […] The concentration of cytokine in the culture supernatant was measured using ELISA kit (R&D SYSTEMS) according to the standard protocols. The culture supernatant was diluted with 1% BSA-PBS, as necessary, and was then analyzed. […] The concentration of cytokine in the culture supernatant was measured using ELISA kit (R&D SYSTEMS) according to the same standard protocols. On the other hand, the concentration of cytokine in mouse plasma was measured by administering 400 μg/mouse IRF-PIPA 3 into the abdominal cavity of wild-type mice, then administering 250 μg of Poly(I:C) into the same abdominal cavity 24 hours after the IRF-PIPA 3 administration, then collecting blood further 2 hours after the Poly(I:C) administration, and then measuring the cytokine concentration in the plasma using ELISA kit (R&D SYSTEMS) according to standard protocols.

[2] = target: DNA sequence (GAAAGTG C GAAAGTG C GAAAGTG C: SEQ ID No: 28); assay: Binding to target DNA sequence, Octet K2; details: Octet K2, 10 to 320 nM, binding and dissociation 60 seconds each, biotin-labeled target sequence
Procedure: In order to verify the cytotoxic activity of IRF-PIPA 3, dsDNA concentration (left view in the figure) and LDH concentration (right view in the figure) in the culture supernatant were measured. The same experiment as that in FIG. 2 was carried out, and the culture supernatant was recovered. A lysate obtained by mixing 2.5×10^5 peritoneal macrophages with 90 μL of 10% FBS-RPMI or D-MEM medium and 10 μL of Lysis Buffer, and then disrupting the cells, was used as a positive control. […] Using Octet K2, the binding of each concentration of IRF-PIPA 3 shown in the figure and a target DNA sequence was analyzed. After mixing a PIPA solution with target DNA, the binding of the two substances was measured for 60 seconds. […] From changes in the binding and dissociation at each concentration over time, a Kd value was calculated as a dissociation constant indicating a binding force. The analysis was performed using Octet K2 (ForteBio) according to standard protocols. A streptavidin-conjugated sensor (ForteBio) was used, and a biotin-labeled target sequence (FASMAC) was allowed to bind to the sensor. Further, according to standard protocols, the binding of 10 to 320 nM IRF-PIPA 3 and the target sequence, and dissociation thereof were analyzed for 60 seconds each.

[3] = system: Ifnb1, Il6, and Tnf genes; assay: Relative mRNA expression in Poly(I:C)-stimulated peritoneal macrophages (qRT-PCR); assay type: cell-based, mice; details: 6 μM 24 h, Poly(I:C) 1 μg/mL 2, 4 or 6 h, qRT-PCR relative to GAPDH
Procedure: Using PBS, peritoneal macrophages were harvested from mice, and were then seeded on a 96-well plate at a cell density of 2.5×10^5 cells/well, followed by culturing for 2 hours. Thereafter, the cultured cells were washed twice with PBS. IRF-PIPA 3 was suspended in a 10% FBS-RPMI or MEM medium to a final concentration of 6 μM, and the obtained suspension was then added to the cells. After completion of the culture for 24 hours, Poly(I:C) was added to the cultured cells to a final concentration of 1 μg/mL. The obtained mixture was cultured for 2, 4, or 6 hours, and the cells were recovered. Using TRIsure, the recovered cells were suspended at 100 µL/well and was then recovered. Thereafter, the relative expression levels of Ifnb1, Il6, and Tnf genes were measured by qRT-PCR.
as §1
2.5×10^5 Peritoneal macrophages were seeded on a plate, and were then treated with IRF-PIPA 3 for 24 hours. […]

## CC(=O)Nc1cn(C)c(C(=O)Nc2cc(C(=O)NCCC(=O)Nc3cc(C(=O)Nc4cn(C)c(C(=O)NCCC(=O)Nc5cn(C)c(C(=O)NCCCC(=O)Nc6cc(C(=O)Nc7cc(C(=O)Nc8cc(C(=O)NCCC(=O)Nc9cc(C(=O)Nc%10cc(C(=O)NCCC(=O)NCCCN(C)C)n(C)c%10)n(C)c9)n(C)c8)n(C)c7)n(C)c6)n5)n4)n(C)c3)n(C)c2)n1 [IRF-PIPA 3]
[1]
  suppression of IFN-β production: strongly suppresses IFN-β production in a concentration-dependent manner
  suppression of IL-6: suppressed, although less strongly than IFN-β
  suppression of TNF-α: suppressed, although less strongly than IFN-β
[2]
  Kd: 22.7 nM
[3]
  relative expression level of Ifnb1 mRNA: strongly suppressed induction of the expression of Ifnb1 mRNA in a concentration-dependent manner
